# How the values were obtained:
# Peronospora parasitica = experiment: In vivo preventive test on Peronospora parasitica (Crucifer downy mildew) on cabbage; details: Hyaloperonospora parasitica, 120 h, sprayed 72 hours before inoculation, evaluated 5 days after inoculation, read-out: efficacy; for pest or weed control at 500 ppm: 500 ppm of active ingredient; for pest or weed control at 31 ppm: 31 ppm of active ingredient; for pest or weed control at 125 ppm: 125 ppm of active ingredient
# Experimental: (§1) The tested active ingredients were prepared by homogenization in a mixture of acetone/Dimethyl sulfoxide/Tween®, and then diluted with water to obtain the desired active material concentration.
# (§2) The young plants of cabbage were treated by spraying the active ingredient prepared as described above. Control plants were treated only with an aqueous solution of acetone/Dimethyl sulfoxide/Tween®.
# After 72 hours, the plants were contaminated by spraying the leaves with an aqueous suspension of Peronospora parasitica spores. The contaminated cabbage plants were incubated for 5 days at 20° C. and at 100% relative humidity.
# The test was evaluated 5 days after the inoculation. 0% means an efficacy which corresponds to that of the control plants while an efficacy of 100% means that no disease was observed.
# [1] = tested on: Xanthomonas campestris pv. campestris; experiment: In vivo preventive test on Xanthomonas campestris pv. campestris (black rot on cabbage); details: Xanthomonas campestris, sprayed 72 hours before inoculation, evaluated 8 or 10 days after inoculation, read-out: efficacy; for pest or weed control at 500 ppm: 500 ppm of active ingredient
# Experimental: as §1, §2
# After 72 hours, the plants were contaminated by spraying the leaves with an aqueous bacteria suspension of Xanthomonas campestris pv. campestris. The contaminated cabbage plants were incubated for 8 or 10 days at 27° C. at 95% relative humidity.
# The test was evaluated 8 or 10 days after the inoculation. 0% means an efficacy which corresponds to that of the control plants while an efficacy of 100% means that no disease was observed.
# [2] = LogP by HPLC on reversed phase columns (EEC directive 79/831 Annex V.A8); type: physicochemical; details: for chromatographic logP: reversed phase HPLC columns
# Experimental: [table] If more than one Log P value is available within the same method, all the values are given and separated by “+”. Calibration was done with straight-chain alkan2-ones (with 3 to 16 carbon atoms) with known Log P values (measurement of Log P values using retention times with linear interpolation between successive alkanones). Lambda-max-values were determined using UV-spectra from 200 nm to 400 nm and the peak values of the chromatographic signals.
# [3] = tested on: salicylate responsive promoter sequence of the PR1 (pathogenesis-related protein I) gene (AT2G14610); experiment: Induction of defense gene expression in Arabidopsis thaliana (PR1 promoter-GFP reporter plants); type: in vivo; details: 72 h, 3rd day after spraying, mock treated leaves set as 1.00, read-out: relative fluorescence value
# Experimental: Arabidopsis thaliana reporter plants containing the coding sequence of a green fluorescent protein (GFP) linked to the salicylate responsive promoter sequence of the PR1 (pathogenesis-related protein I) gene (AT2G14610) were grown for five days and then sprayed with compounds. On the 3rd day after spraying, plant fluorescence was assessed with a MacroFluo instrument from Leica Microsystems (Wetzlar, Germany). Fluorescences were quantified with the Meta-Morph Microscopy Automation & Image Analysis Software (Molecular Devices, Sunnyvale, Calif., United States). Background fluorescence in mock treated leaves was set as 1.00.
# [4] = tested on: Colletotrichum lindemuthianum; experiment: In vivo preventive test on Colletotrichum lindemuthianum (Anthracnose on bean); details: sprayed 72 hours before inoculation, evaluated 6 days after inoculation
# Experimental: as §1
# (§3) The young plants of bean were treated by spraying the active ingredient prepared as described above. Control plants were treated only with an aqueous solution of acetone/Dimethyl sulfoxide/Tween®.
# After 72 hours, the plants were contaminated by spraying the leaves with an aqueous suspension of Colletotrichum lindemuthianum spores. The contaminated bean plants were incubated for 24 hours at 20° C. and at 100% relative humidity and then for 5 days at 20° C. and at 90% relative humidity.
# The test was evaluated 6 days after the inoculation. 0% means an efficacy which corresponds to that of the control plants while an efficacy of 100% means that no disease was observed.
# Uromyces appendiculatus = experiment: In vivo preventive test on Uromyces appendiculatus (bean rust); details: 240 h, sprayed 72 hours before inoculation, evaluated 10 days after inoculation, read-out: efficacy; for pest or weed control at 125 ppm: 125 ppm of active ingredient; for pest or weed control at 500 ppm: 500 ppm of active ingredient; for pest or weed control at 31 ppm: 31 ppm of active ingredient
# Experimental: as §1, §3
# After 72 hours, the plants were contaminated by spraying the leaves with an aqueous suspension of Uromyces appendiculatus spores. The contaminated bean plants were incubated for 24 hours at 20° C. and at 100% relative humidity and then for 9 days at 20° C. and at 70-80% relative humidity.
# The test was evaluated 10 days after the inoculation. 0% means an efficacy which corresponds to that of the control plants while an efficacy of 100% means that no disease was observed.
# [5] = Colletotrichum lindemuthianum, 144 h, 500 ppm of active ingredient, read-out: efficacy
# [6] = method [a]: LC-UV, acidic range, 0.1% formic acid in water and acetonitrile as eluent
smiles,measurement,setting,value
"CCCOC(=O)C1(NC(=O)c2cc(Br)c(Br)s2)CC1 [CMP7, reference compound]",pest or weed control at 500 ppm,Peronospora parasitica,0%
"O=C(NC(C(=O)O)C1CC1)c1sc(Br)c(Br)c1Br (stereo not shown) [CMP8, reference compound]",pest or weed control at 500 ppm,[1],< 10%
COC(=O)C1(NC(=O)c2sc(Br)c(Br)c2C)CCC1 [I.131],chromatographic logP,[2]; method [a],3.4
same,fold induction at 75 ppm,[3],> 2
same,fold induction at 300 ppm,[3],> 2
same,pest or weed control at 500 ppm,[4]; [5],80 to 89%
same,pest or weed control at 31 ppm,Peronospora parasitica,80 to 89%
same,pest or weed control at 125 ppm,Peronospora parasitica,90 to 100%
same,pest or weed control at 500 ppm,Peronospora parasitica,90 to 100%
same,pest or weed control at 125 ppm,Uromyces appendiculatus,90 to 100%
same,pest or weed control at 500 ppm,Uromyces appendiculatus,90 to 100%
"CCOC(=O)CN(C)C(=O)c1sc(Br)c(Br)c1Br [CMP15, reference compound]",pest or weed control at 500 ppm,[4]; [5],< 40%
same,pest or weed control at 125 ppm,Peronospora parasitica,< 30%
"O=C(NC(C(=O)O)C1CC1)c1cc(Br)c(Br)s1 (stereo not shown) [CMP13, reference compound]",pest or weed control at 125 ppm,Peronospora parasitica,0%
"COC(=O)C1(NC(=O)c2cc(Br)c(Br)s2)CC1 [CMP5, reference compound]",pest or weed control at 125 ppm,"[4]; Colletotrichum lindemuthianum, 144 h, 125 ppm of active ingredient, read-out: efficacy",0%
same,pest or weed control at 125 ppm,Peronospora parasitica,< 40%
same,pest or weed control at 31 ppm,Uromyces appendiculatus,0%
same,pest or weed control at 500 ppm,Uromyces appendiculatus,< 20%
"COC(=O)C(NC(=O)c1sc(Br)c(Br)c1Br)C1CC1 (stereo not shown) [CMP14, reference compound]",pest or weed control at 31 ppm,Peronospora parasitica,0%
same,pest or weed control at 125 ppm,Peronospora parasitica,0%
"CCOC(=O)C1(NC(=O)c2cc(Cl)c(Cl)s2)CC1 [CMP6, reference compound]",pest or weed control at 31 ppm,"[4]; Colletotrichum lindemuthianum, 144 h, 31 ppm of active ingredient, read-out: efficacy",< 40%
same,pest or weed control at 125 ppm,Peronospora parasitica,0%
same,pest or weed control at 500 ppm,Peronospora parasitica,0%
"O=C(O)c1ccccc1O [Salicylic acid, reference compound]",fold induction at 300 ppm,[3],2.7
CCCSC(=O)C1(NC(=O)c2sc(Br)c(Br)c2C)CC1 [I.134],chromatographic logP,[2]; method [a],4.26
same,fold induction at 75 ppm,[3],> 2
same,fold induction at 300 ppm,[3],> 2
same,pest or weed control at 500 ppm,Peronospora parasitica,80 to 89%
same,pest or weed control at 500 ppm,Uromyces appendiculatus,90 to 100%
Cc1c(C(=O)NC(CO)C(=O)O)sc(Br)c1Br (stereo not shown) [I.071],LogP,[2]; method [a],1.92^[a]
CCOC(=O)CN(O)C(=O)c1sc(Cl)c(Cl)c1C [I.116],LogP,[2]; method [a],2.95^[a]
Cc1c(C(=O)NCC(=O)NC2(C(=O)O)CC2)sc(Br)c1Br [I.025],LogP,[2]; method [a],1.95^[a]
COC(=O)C(NC(=O)c1sc(Br)c(Br)c1C)C(=O)OC [I.091],LogP,[2]; method [a],3.10^[a]
Cc1c(C(=O)NC2(C#N)CCCSC2)sc(Br)c1Br (stereo not shown) [I.177],LogP,[2]; method [a],3.50^[a]
Cc1c(C(=O)NC2(C(=O)OC(C)C)CCC2)sc(Cl)c1Cl [I.141],LogP,[2]; method [a],4.05^[a]
CCCOC(=O)C1(NC(=O)c2sc(Br)c(Br)c2C)CCC1 [I.133],chromatographic logP,[2]; method [a],4.23
same,fold induction at 75 ppm,[3],> 2
same,fold induction at 300 ppm,[3],> 2
same,pest or weed control at 31 ppm,Peronospora parasitica,70 to 79%
same,pest or weed control at 125 ppm,Peronospora parasitica,90 to 100%
same,pest or weed control at 500 ppm,Peronospora parasitica,90 to 100%
same,pest or weed control at 31 ppm,Uromyces appendiculatus,90 to 100%
same,pest or weed control at 125 ppm,Uromyces appendiculatus,90 to 100%
same,pest or weed control at 500 ppm,Uromyces appendiculatus,90 to 100%
Cc1c(C(=O)NC2(C(=O)OC(C)(C)C)CCC2)sc(Cl)c1Cl [I.156],LogP,[2]; method [a],4.55^[a]
COC(=O)C(CCC(N)=O)NC(=O)c1sc(Br)c(Br)c1C (stereo not shown) [I.138],LogP,[2]; method [a],2.13^[a]
Cc1c(C(=O)NC(Cc2c[nH]c3ccccc23)C(=O)O)sc(Br)c1Br (stereo not shown) [I.073],LogP,[2]; method [a],3.07^[a]
CCOC(=O)C(Cc1c[nH]c2ccccc12)NC(=O)c1sc(Br)c(Br)c1C (stereo not shown) [I.036],LogP,[2]; method [a],4.15^[a]
Cc1c(C(=O)NC2CCCNC2=O)sc(Br)c1Br (stereo not shown) [I.022],LogP,[2]; [6],2.10^[a]
"O=C(NC1(C(=O)O)CC1)c1cc(Cl)c(Cl)s1 [CMP3, reference compound]",pest or weed control at 125 ppm,Peronospora parasitica,0%
same,pest or weed control at 500 ppm,Peronospora parasitica,0%
same,pest or weed control at 31 ppm,[1]; 31 ppm of active ingredient,< 40%
same,pest or weed control at 500 ppm,[1],0%
COC(=O)C(NC(=O)c1sc(Br)c(Br)c1C)(C1CC1)C1CC1 [I.093],LogP,[2]; method [a],4.01^[a]
Cc1c(C(=O)NC2(C(=O)OCC3CC3)CCC2)sc(Cl)c1Cl [I.155],LogP,[2]; method [a],4.19^[a]
COC(=O)[C@H](CSC(=O)N(C)C)NC(=O)c1sc(Cl)c(Cl)c1C [I.119],LogP,[2]; method [a],3.35^[a]
CCOC(=O)CN(OC)C(=O)c1sc(Cl)c(Cl)c1C [I.098],LogP,[2]; method [a],3.87^[a]
Cc1c(C(=O)NC(C(=O)NCC#N)C(C)C)sc(Br)c1Br (stereo not shown) [I.075],LogP,[2]; method [a],2.92^[a]
CCSC(=O)C(CC(C)C)NC(=O)c1sc(Cl)c(Cl)c1C (stereo not shown) [I.041],LogP,[2]; method [a],5.00^[a]
COC(=O)[C@H](CCC(N)=O)NC(=O)c1sc(Cl)c(Cl)c1C [I.046],LogP,[2]; method [a],2.06^[a]
Cc1c(C(=O)N[C@H]2CCSC2=O)sc(Br)c1Br [I.010],LogP,[2]; [6],3.04^[a]
CCOC(=O)C(NC(=O)c1sc(Br)c(Br)c1C)C1CC1 (stereo not shown) [I.089],LogP,[2]; method [a],3.84^[a]
CCOC(=O)C(NC(=O)c1sc(Br)c(Br)c1C)C(=O)OCC [I.094],LogP,[2]; method [a],3.87^[a]
COC(=O)C(CCSC(C)=O)NC(=O)c1sc(Cl)c(Cl)c1C (stereo not shown) [I.117],LogP,[2]; method [a],3.59^[a]
COC(=O)C1(NC(=O)c2sc(Br)c(Br)c2C)CCOC1 (stereo not shown) [I.004],LogP,[2]; method [a],2.84^[a]
Cc1c(C(=S)NC(C)C(=O)O)sc(Br)c1Br (stereo not shown) [I.173],LogP,[2]; method [a],3.05^[a]
Cc1c(C(=O)NC2CNC(=O)C2)sc(Br)c1Br (stereo not shown) [I.065],LogP,[2]; [6],1.89^[a]
COC(=O)[C@H](CC(=O)OC(C)(C)C)NC(=O)c1sc(Cl)c(Cl)c1C [I.125],LogP,[2]; method [a],4.17^[a]
Cc1c(C(=O)NCC(N)=O)sc(Cl)c1Cl [I.062],LogP,[2]; method [a],1.75^[a]
Cc1c(C(=O)NC2CCNC(=O)C2)sc(Br)c1Br (stereo not shown) [I.066],LogP,[2]; [6],1.93^[a]
Cc1c(C(=O)NC(C#N)Cc2ccccc2)sc(Br)c1Br (stereo not shown) [I.030],LogP,[2]; method [a],4.01^[a]
Cc1c(C(=O)NC2CCOC2=O)sc(Cl)c1Cl (stereo not shown) [I.147],LogP,[2]; [6],2.40^[a]
CCOC(=O)C1(NC(=O)c2sc(Br)c(Br)c2C)CCC1 [I.132],chromatographic logP,[2]; method [a],3.81
same,fold induction at 75 ppm,[3],> 2
same,fold induction at 300 ppm,[3],> 2
same,pest or weed control at 500 ppm,[4]; [5],70 to 79%
same,pest or weed control at 31 ppm,Peronospora parasitica,80 to 89%
same,pest or weed control at 125 ppm,Peronospora parasitica,80 to 89%
same,pest or weed control at 500 ppm,Peronospora parasitica,90 to 100%
same,pest or weed control at 31 ppm,Uromyces appendiculatus,90 to 100%
same,pest or weed control at 125 ppm,Uromyces appendiculatus,90 to 100%
same,pest or weed control at 500 ppm,Uromyces appendiculatus,90 to 100%
CCOC(=O)[C@H](CO)NC(=O)c1sc(Cl)c(Cl)c1C [I.148],LogP,[2]; method [a],2.53^[a]
"COC(=O)CC[C@H](NC(=O)c1sc(Br)c(Br)c1C)C(=O)OC [CMP16, reference compound]",efficacy,[4]; 500 ppm of active ingredient,38%
CCSC(=O)C(CC(C)C)NC(=O)c1sc(Br)c(Br)c1C (stereo not shown) [I.007],LogP,[2]; method [a],5.03^[a]
Cc1c(C(=O)NC2(C(=O)OC3CCCCC3)CCC2)sc(Cl)c1Cl [I.158],LogP,[2]; method [a],5.08^[a]
CCOC(=O)C1(NC(=O)c2sc(Br)c(Br)c2C)CCCC1 [I.106],LogP,[2]; method [a],4.09^[a]
COC(=O)CC1(NC(=O)c2sc(Cl)c(Cl)c2C)CC1 [I.082],LogP,[2]; method [a],2.98^[a]
